For orientation: half-life means the time needed for the level to fall by half in the phase considered.

This is an account of results in US9707201B2 (Leptrex Ltd, priority 2013, dated 2017).

“Also recorded” adds a separate entry of the source.

Series [1] is classed as physicochemical. Particulars: buffer. Here is the method: 1. Aqueous solutions were prepared using 70 ml water and 6 g McCormick garlic powder, along with methiin or alliin in the proportions shown in table 37 below. The liquid in the top row was prepared from a blend of the following liquids:
2. All solutions were prepared at a temperature of 21° C. with the garlic powder reaction mixture being stirred for 3 hours. At the end of the 3 hour stirred reaction period, the solutions were filtered and immediately assayed by HPLC for their respective A-1, A-2 and A-4 content. These initial concentration values were considered as Time Zero values. 3. After Time Zero thiosulfinate concentrations had been obtained, the solutions were stored at stable temperatures within accurate temperature regulated ovens. 4. Samples of each temperature stored aqueous solution were withdrawn at appropriate time intervals and assayed by HPLC for A-1, A-2 and A-4 content. The decay of the blended liquid can be seen in FIGS. 64, 65 and 66. […] 5. The decomposition profile graphs for MMTSO, MA-AM and Allicin are shown in FIGS. 67, 68 and 69 respectively. These figures were constructed by expressing their respective HPLC peak area integration values measured at 240 nm as a function of sample storage time to obtain Relative % Concentration values. In all cases the best fit was obtained with MicroCal Origin s/w using a first order exponential decay fit. In FIG. 67, the half-life value was obtained by interpolating the time at which the A-4 (MMTSO) peak provides ½ integral value of that initially obtained for A-4 peak at Time Zero. Half-life for A-4 at 55° C. was determined as 51.1 hrs. Similarly in FIG. 68, the half-life value was obtained by interpolating the time at which A-1 (MA-AM) peak provides ½ integral value of that initially obtained for A-1 peak at Time Zero. Half-life for A-1 was determined as 30.2 hrs. Once again, the half-life value was obtained by interpolating the time at which A-2 (Allicin) peak provides ½ integral value of that initially obtained for A-2 peak at Time Zero. Half-life for A-2 is determined as 9.4 hrs.

Series [2] is described as follows: Ageing of aqueous FG + P-1 reaction solution at 40° C., thiosulfinate content by HPLC. The format is physicochemical. Particulars: for A4 Peak Integration Value × 10^−4: 240 nm. Here is the method:
Similar studies were conducted with an aqueous solution of analogue 4 (MMTSO) produced by the method of process 6a, as set out in row 4 of table 23.
1. The reaction mixture (12.0 g FG+400 mg P-1+70 ml H2O) was filtered immediately after 4 hour reaction time and served as the stock solution for this study.
2. The filtered solution was divided into 2 portions. One to be stored frozen and the other to be stored at 40° C.
3. The portion of filtered solution to be used to determine the half-life of A4 was placed in a sealed glass bottle that was placed in an oven that provided a stable temperature of 40° C.
4. At irregular intervals a sample of the aqueous solution was withdrawn and analysed by HPLC.
FIGS. 57-60 show the chromatogram obtained after 0, 120, 168 and 672 hours respectively. Their concentrations are set out below in table 32: […]

Series [3] relates to herpes simplex virus types 1 and 2, parainfluenza virus type 3 and rhinovirus type 2. Conditions: in vitro, compounds present in garlic extracts; cited from earlier work.
For another series, the system named is Helicobacter pylori. Conditions: Canizares et al. 2004; cited from earlier work.
The subject of series [4] is MRSA clinical isolate QMUL301. Kind of series: Standard agar diffusion test, zones of inhibition. The format is cell-based, methicillin-resistant Staphylococcus aureus. Particulars: for Activity of the solution after storage: aqueous solution stored at 17° C. for 56 days. As for the experimental part: The activity of powders and liquids was determined using standard agar diffusion tests. Susceptibility of isolates by measuring the zones of inhibition around a measured amount of the anti-microbial agent.
Bacteria: MRSA clinical isolate QMUL301 was used. Overnight broth cultures in isosensitest broth were prepared. These were diluted to give a final concentration of 10^5 cfu/ml
Media: Isosensitest agar (Oxoid Ltd).
• A broth containing 10^5 cfu/ml was prepared in peptone water. • 0.2 ml was spread over each isosensitest plate. • Plates were air dried and a 6 mm well cut in the centre of the plate. • A volume of 100 ul of liquid or 100 ug of solid was added to each well. • Plates were incubated overnight at 37° C. • The presence of zones of inhibition around a well is indicative of biological activity being present. No zone around the 6 mm well, (as with the negative control) represented no biological activity.
For orientation: In agar diffusion tests the substance spreads into inoculated agar from a disc or well.

Series [5] in a line: Thiosulfinate half-life in 100% aqueous garlic extract solution by quantitative HPLC. The format is physicochemical. Conditions: buffer, 100% aqueous solution, mean (SD), n=3, read-out: Half-Life (hours) at 20° C.
Series [6] in a line: Thiosulfinate half-life in aqueous ethanol garlic extract solutions by quantitative reverse phase HPLC. The series is classed as physicochemical. Particulars: buffer, initial allicin 400 ppm, mean (SD), n=3. Here is the method:
The solutions were prepared from a single stock aqueous garlic extract solution that was diluted with the appropriate volume of ethanol to produce the 25%, 50% and 75% ethanol garlic aqueous extract solutions. The aqueous stock solution of garlic extract assayed by HPLC was determined to have an allicin content of 1600 ppm (1600 mg allicin in 1000 ml water) and each of the 25%, 50% and 75% ethanol:aqueous dilutions prepared from the aqueous garlic extract stock solution were prepared to provide an initial allicin concentration of 400 ppm.
The decomposition profiles of MeS(O)SAll and AllS(O)SMe (the MA-AM mixture collectively referred to as Analogue-1), AllS(O)SAll (Allicin, Analogue-2) and AllS(O)SPn-(E,Z) (Analogue-3) thiosulfinates were then determined by quantitative reverse phase HPLC. The quantitative HPLC procedure involved determining the relative concentrations of each thiosulfinate in the various solutions at the various ageing temperatures as a function of the time that each solution was stored at a carefully controlled temperature. The initial measurement of the concentration value for each thiosulfinate determined immediately after freshly prepared solutions were prepared provides the 100% thiosulfinate concentration value for the start time (time zero) at which the time-lapse thermal decomposition measurements started to commence.
The quantitative HPLC data recorded for the MA-AM mixture (Analogue-1), allicin (Analogue-2) and AllS(O)SPn-(E,Z) (Analogue-3) established that each thiosulfinate was subject to a first-order exponential decay process when the 25%, 50% and 75% aqueous:ethanol garlic extract solutions were stored (aged) through the temperature range 40-20° C. FIGS. 2-4 show exponential decay profiles obtained for MA-AM (Analogue-1), allicin (Analogue-2) and AllS(O)SPn-(E,Z) (Analogue-3)—FIGS. 2-4 produced from data obtained from the HPLC analyses of the same single sample whose solvent composition was ethanol:water (25:75% by volume) with an initial allicin concentration of 400 ppm. The decay profiles were obtained using ORIGIN version 6.1 software (Origin is a registered trade mark of OriginLab Corporation) software that determined the best fit for decomposition profiles as being first-order exponential decay. From the decomposition profiles shown in FIGS. 2-4 it is possible to interpolate to determine the time required for each thiosulfinate to decompose to 50% of its initial concentration level that had been initially measured at the outset when controlled temperature storage started.

The mark [7] stands for this setting: aqueous solution (12.0 g FG + 400 mg P-1 + 70 ml H2O), 0 hours aged at 40° C.
Where [8] appears, read: aqueous solution, 120 hours aged at 40° C.
[9] abbreviates: aqueous solution, 168 hours aged at 40° C.
The mark [10] stands for this setting: aqueous solution, 672 hours aged at 40° C.
The mark [11] stands for this setting: aqueous solution, 0 hours aged at 40° C.

Compound “methyl allyl-thiosulfinate (MA) and its structural isomer allyl methyl-thiosulfinate (AM) [Analogue A-1]” gave a Half-Life hrs in series [1] of 30.2 h. In addition, the “concentration (ppm)” value in series [2] (setting [7]) was found to be 843 ppm; in series [2] (setting [8]) it was 415 ppm; in series [2] (setting [9]) it was 314 ppm; in series [2] (setting [10]), 35 ppm.

For the compound “allyl allyl-thiosulfinate [Analogue A-2, reference compound]”, the Virucidal activity entry in series [3] is given as “possess virucidal activity”. Besides, in the series on Helicobacter pylori, the “Inhibition of the in vitro growth of Helicobacter pylori” value is on record as “show inhibition”. Besides, the “Activity of the solution after storage” value in series [4] is listed as “lost all measurable activity”. This compound also showed a Half-Life hrs in series [1] of 9.4 h. Also, the “concentration (ppm)” value in series [2] (setting [7]) is 47 ppm.

Turning to `CS[S+](C)[O-]` (stereo not shown) [Analogue A-4, methyl methyl-thiosulfinate], the “Activity of the solution after storage” value in series [4] was “remains active”. The “Antimicrobial activity against MRSA” value in series [4] (aqueous solutions) is “significant antimicrobial activity; also recorded: at least the same level of antimicrobial activity against MRSA as A-2”. In addition, in series [1], the Half-Life hrs stood at 51.1 h. In addition, the A-4 ppm in series [2] (aqueous solution (Red Spot), stored at 40° C. for 672 hours) worked out at 1597 ppm. Besides, the “A4 concentration converted from peak integration value” in series [2] (setting [11]) is “(=2410 ppm)”. Further, the “A4 Peak Integration Value × 10^−4” value in series [2] (setting [11]) was 1153; in series [2] (setting [8]), 1074; in series [2] (setting [9]) it was 1004; in series [2] (setting [10]), “(743)”; in series [2] (aqueous solution, 672 hours aged at 40° C., listed as A4) it was 764.

For `C=CC[S+]([O-])SC=CC` (stereo not shown), the half-life was found to be 140 h in series [5] (initial allicin (A-2) concentration 375 ppm); 77.2 h in series [5] (initial allicin (A-2) concentration 1500 ppm); 134 h in series [6] (25% EtOH, 20° C.); 66.1 h in series [6] (25% EtOH, 25° C.); 39.5 h in series [6] (25% EtOH, 30° C.); 25 h in series [6] (25% EtOH, 35° C.). Further, the half-life stood at 15.3 h in series [6] (25% EtOH, 40° C.); 203 h in series [6] (50% EtOH, 20° C.); 121 h in series [6] (50% EtOH, 25° C.); 65.6 h in series [6] (50% EtOH, 30° C.); 28.8 h in series [6] (50% EtOH, 35° C.); 17.3 h in series [6] (50% EtOH, 40° C.). For the same compound, the half-life in series [6] (75% EtOH, 20° C.) was 161 h; in series [6] (75% EtOH, 25° C.) it was 73.4 h; in series [6] (75% EtOH, 30° C.), 46.9 h; in series [6] (75% EtOH, 35° C.), 30.3 h; in series [6] (75% EtOH, 40° C.), 17.6 h.
